According to publication PMC11995724, “Antibiotic target discovery by integrated phenotypic and activity-based profiling of electrophilic fragments” (Cell chemical biology, 2025):
Counter-ions that a name gives are not always drawn.

test: in vitro; conditions: human, hek293t cells
Experimental: Mammalian cytotoxicity measurement was performed using Cell Titer-Glo 2.0 Cell Viability Assay (Promega, G9243) according to the manufacturer protocol. In brief, mammalian cells were seeded into 384-well white plates (Greiner, 781080) and incubated at 37°C for one day. Compounds from the Cys-Library were dispensed into the assay plate using epMotion 96. The plates were then incubated at 37°C for two days. An equal volume of Cell Titer-Glo 2.0 reagent was added into each well of the assay plate using epMotion 96 and incubated at 22°C for 10 min, followed by luminescence measurement using a Cytation 5 plate reader (BioTek).

| SMILES | viability at 48 h, 25 µM [%] |
| --- | --- |
| CN(C)c1ccc(C=C(C#N)C(=O)Nc2ccccc2C(=O)O)cc1 [9-I08, 2-{2-cyano-3-[4-(dimethylamino)phenyl]prop-2-enamido}benzoic acid] | 95.5 |
| CC(Cl)C(=O)NCCN1CCn2nccc2C1 (stereo not shown) [5-D13, 2-chloro-N-(2-{4H,5H,6H,7H-pyrazolo[1,5-a]pyrazin-5-yl}ethyl)propanamide] | 98.4 |
| C=CC(=O)N(C)CC(=O)N1CCN(C(=O)c2cccc(O)c2)CC1 [2-J22, N-{2-[4-(3-hydroxybenzoyl)piperazin-1-yl]-2-oxoethyl}-N-methylprop-2-enamide] | 97.7 |
| Cc1cc(C=C(C#N)C(=O)Nc2nccs2)cc(C)c1O [9-D13, 2-cyano-3-(4-hydroxy-3,5-dimethylphenyl)-N-(1,3-thiazol-2-yl)prop-2-enamide] | 106 |
| COc1ccc(NC(=O)C(C#N)=Cc2ccco2)cc1 [9-F19, 2-cyano-3-(furan-2-yl)-N-(4-methoxyphenyl)prop-2-enamide] | 94.6 |
| CC(Cl)C(=O)N1Cc2ccccc2OC(C)(C)C1 (stereo not shown) [6-H19, 2-chloro-1-(2,2-dimethyl-2,3,4,5-tetrahydro-1,4-benzoxazepin-4-yl)propan-1-one] | 91 |
| C=CC(=O)NCC1CCN(C)C1=O (stereo not shown) [2-B05, N-[(1-methyl-2-oxopyrrolidin-3-yl)methyl]prop-2-enamide] | 71.1 |
| CS(=O)(=O)NCCc1ccc(C(=O)CCl)cc1 [10-D06, N-{2-[4-(2-chloroacetyl)phenyl]ethyl}methanesulfonamide] | 18.3 |
| C=CC(=O)N1CC(C)OC2(CCOCC2)C1 (stereo not shown) [3-I12, 1-{2-methyl-1,9-dioxa-4-azaspiro[5.5]undecan-4-yl}prop-2-en-1-one] | 91.6 |
| CC1CCc2c(sc(NC(=O)CCl)c2C(=O)OC(C)C)C1 (stereo not shown) [4-D07, propan-2-yl 2-(2-chloroacetamido)-6-methyl-4,5,6,7-tetrahydro-1-benzothiophene-3-carboxylate] | 73.7 |
| O=C1C=CC(=O)N1c1ccc(OC(F)(F)F)cc1 [10-J19, 1-[4-(trifluoromethoxy)phenyl]-2,5-dihydro-1H-pyrrole-2,5-dione] | 85.4 |
| COc1ccc(C=C(C#N)C(=O)Nc2ccc(C)c(C)c2)cc1 [8-I05, 2-cyano-N-(3,4-dimethylphenyl)-3-(4-methoxyphenyl)prop-2-enamide] | 87.4 |
| Cc1noc(C2CN(C(=O)C(C)Cl)C2)n1 (stereo not shown) [7-G04, 2-chloro-1-[3-(3-methyl-1,2,4-oxadiazol-5-yl)azetidin-1-yl]propan-1-one] | 92.2 |
| N#CC(=Cc1ccncc1)C(=O)Nc1ccccc1Cl [8-N17, N-(2-chlorophenyl)-2-cyano-3-(pyridin-4-yl)prop-2-enamide] | 112 |
| CCCCNC(=O)C(C#N)=Cc1c[nH]nn1 [9-L04, N-butyl-2-cyano-3-(1H-1,2,3-triazol-4-yl)prop-2-enamide] | 116 |
| C=CC(=O)NC1CCCN(c2cc(N3CCOCC3)ncn2)C1 (stereo not shown) [1-A08, N-{1-[6-(morpholin-4-yl)pyrimidin-4-yl]piperidin-3-yl}prop-2-enamide] | 103 |
| C=CC(=O)NCCCN1CCCS1(=O)=O [3-H19, N-[3-(1,1-dioxo-1lambda6,2-thiazolidin-2-yl)propyl]prop-2-enamide] | 88.4 |
| O=C(CCl)NCc1ccc(Cl)c(C(F)(F)F)c1 [7-D22, 2-chloro-N-{[4-chloro-3-(trifluoromethyl)phenyl]methyl}acetamide] | 0.676 |
| C=CC(=O)NCc1cn(C2CCCC2)nc1C [3-N21, N-[(1-cyclopentyl-3-methyl-1H-pyrazol-4-yl)methyl]prop-2-enamide] | 55.5 |
| COc1ccccc1N1C(=O)C=CC1=O [10-O10, 1-(2-methoxyphenyl)-2,5-dihydro-1H-pyrrole-2,5-dione] | 57.5 |
| C=CC(=O)N1CCCC(CNC(C)=O)C1 (stereo not shown) [3-E15, N-{[1-(prop-2-enoyl)piperidin-3-yl]methyl}acetamide] | 46.4 |
| C=CC(=O)Nc1cc(C)cc(S(C)(=O)=O)c1 [3-F14, N-(3-methanesulfonyl-5-methylphenyl)prop-2-enamide] | 94.1 |
| CC(Cl)C(=O)Nc1ccc2c(c1)C(=O)c1ccccc1C2=O (stereo not shown) [4-G06, 2-chloro-N-(9,10-dioxo-9,10-dihydroanthracen-2-yl)propanamide] | 58.6 |
| N#Cc1ccccc1N1C(=O)C=CC1=O [10-B13, 2-(2,5-dioxo-2,5-dihydro-1H-pyrrol-1-yl)benzonitrile] | 65.2 |
| CC(Cl)C(=O)NCCc1csc(N2CCCC2)n1 (stereo not shown) [7-O08, 2-chloro-N-{2-[2-(pyrrolidin-1-yl)-1,3-thiazol-4-yl]ethyl}propanamide] | 95.9 |
| COc1ccccc1[C@H]1C[C@H](NC(=O)CCl)C1 [7-L18, 2-chloro-N-[(1r,3r)-3-(2-methoxyphenyl)cyclobutyl]acetamide] | 0.928 |

| SMILES | viability at 48 h, 25 µM [%] |
| --- | --- |
| O=C(CCl)c1ccc(CC(=O)N2CCOCC2)s1 [10-H06, 2-chloro-1-{5-[2-(morpholin-4-yl)-2-oxoethyl]thiophen-2-yl}ethan-1-one] | 71.7 |
| Cc1ccc(NC(=O)CN2CCN(C(=O)CCl)CC2)cc1 [4-D16, 2-[4-(2-chloroacetyl)piperazin-1-yl]-N-(4-methylphenyl)acetamide hydrochloride] | 0.854 |
| O=C(CCl)NCCc1c[nH]c2c(F)c(F)c(F)cc12 [7-H16, 2-chloro-N-[2-(5,6,7-trifluoro-1H-indol-3-yl)ethyl]acetamide] | 1.21 |
| C=CC(=O)N1CCC(C(=O)Nc2ccn(Cc3ccccn3)n2)CC1 [3-B07, 1-(prop-2-enoyl)-N-{1-[(pyridin-2-yl)methyl]-1H-pyrazol-3-yl}piperidine-4-carboxamide] | 53.3 |
| C=CC(=O)N1CCC(C(=O)N2CCCC(C3OCCO3)C2)CC1 (stereo not shown) [2-L16, 1-{4-[3-(1,3-dioxolan-2-yl)piperidine-1-carbonyl]piperidin-1-yl}prop-2-en-1-one] | 58 |
| CC(Cl)C(=O)N1C2CCC1CC(c1ccnn1C)C2 (stereo not shown) [7-O15, 2-chloro-1-[3-(1-methyl-1H-pyrazol-5-yl)-8-azabicyclo[3.2.1]octan-8-yl]propan-1-one] | 88.6 |
| CN1C(=C(C#N)C(=O)CCl)N(C)c2ccccc21 [10-P18, 4-chloro-2-(1,3-dimethyl-2,3-dihydro-1H-1,3-benzodiazol-2-ylidene)-3-oxobutanenitrile] | 89.4 |
| C=CC(=O)N(C)CC(=O)Nc1ccc(C)c(S(=O)(=O)N(C)C)c1 [3-G04, N-({[3-(dimethylsulfamoyl)-4-methylphenyl]carbamoyl}methyl)-N-methylprop-2-enamide] | 78.3 |
| CC(Cl)C(=O)Nc1cccc(C#N)c1 (stereo not shown) [5-B10, 2-chloro-N-(3-cyanophenyl)propanamide] | 77.3 |
| Cc1c(C=C(C#N)C(=O)Nc2cnc3ccccc3c2)cc(C#N)n1C [9-N15, 2-cyano-3-(5-cyano-1,2-dimethyl-1H-pyrrol-3-yl)-N-(quinolin-3-yl)prop-2-enamide] | 111 |
| CC(Cl)C(=O)NCc1csc(-c2ccco2)n1 (stereo not shown) [7-K05, 2-chloro-N-{[2-(furan-2-yl)-1,3-thiazol-4-yl]methyl}propanamide] | 90.6 |
| N#CCCSc1ccccc1NC(=O)CCl [6-N12, 2-chloro-N-{2-[(2-cyanoethyl)sulfanyl]phenyl}acetamide] | 1.44 |
| O=C(CCl)N1N=C(c2ccccc2)CC1c1ccccc1 (stereo not shown) [4-I20, 2-chloro-1-(3,5-diphenyl-4,5-dihydro-1H-pyrazol-1-yl)ethan-1-one] | 0.141 |
| CC(Cl)C(=O)NCC(=O)Nc1ccc(F)c(F)c1F (stereo not shown) [4-D20, 2-chloro-N-{[(2,3,4-trifluorophenyl)carbamoyl]methyl}propanamide] | 118 |
| O=C(O)C(c1ccccc1)N1C(=O)C=CC1=O (stereo not shown) [10-E21, 2-(2,5-dioxo-2,5-dihydro-1H-pyrrol-1-yl)-2-phenylacetic acid] | 92.4 |
| C=CC(=O)N1CCC(c2ncc(C(=O)O)o2)CC1 [2-G19, 2-[1-(prop-2-enoyl)piperidin-4-yl]-1,3-oxazole-5-carboxylic acid] | 101 |
| O=C(CCl)NC(Cc1ccccc1)C(=O)O (stereo not shown) [6-C13, 2-(2-chloroacetamido)-3-phenylpropanoic acid] | 97.4 |
| CC(Cl)C(=O)NC(C)c1nnc2n1CCCC2 (stereo not shown) [6-H13, 2-chloro-N-(1-{5H,6H,7H,8H-[1,2,4]triazolo[4,3-a]pyridin-3-yl}ethyl)propanamide] | 105 |
| C=CC(=O)N1CCN(Cc2nc(C(C)C)no2)CC1 [3-G11, 1-(4-{[3-(propan-2-yl)-1,2,4-oxadiazol-5-yl]methyl}piperazin-1-yl)prop-2-en-1-one] | 55.2 |
| C=CC(=O)N1CC(OCc2nc(C)no2)C1 [1-P18, 1-{3-[(3-methyl-1,2,4-oxadiazol-5-yl)methoxy]azetidin-1-yl}prop-2-en-1-one] | 67.7 |
| CC(Cl)C(=O)c1ccc(F)c(F)c1 (stereo not shown) [10-A17, 2-chloro-1-(3,4-difluorophenyl)propan-1-one] | 66.4 |
| C=CC(=O)N(C)Cc1ncc(C(F)(F)F)n1C [2-D19, N-methyl-N-{[1-methyl-5-(trifluoromethyl)-1H-imidazol-2-yl]methyl}prop-2-enamide] | 70.6 |
| C=CC(=O)Nc1cn(CCC)cn1 [3-B10, N-(1-propyl-1H-imidazol-4-yl)prop-2-enamide] | 91.1 |
| O=C(CCl)NCCC1CCCC1(F)F (stereo not shown) [7-P04, 2-chloro-N-[2-(2,2-difluorocyclopentyl)ethyl]acetamide] | 1.08 |
| C=CC(=O)N(C)CC(=O)N1CCc2ccc(S(C)(=O)=O)cc2CC1 [2-N08, N-[2-(7-methanesulfonyl-2,3,4,5-tetrahydro-1H-3-benzazepin-3-yl)-2-oxoethyl]-N-methylprop-2-enamide] | 95.1 |
| CNC(=O)C(C#N)=Cc1cccc(C)c1C [9-D14, 2-cyano-3-(2,3-dimethylphenyl)-N-methylprop-2-enamide] | 112 |
